Measurements: patent US4208426A, “Pyranochromone derivatives and therapeutic composition comprising same for treatment of allergic diseases” (Eisai Co., Ltd., priority 1977, dated 1980)

Columns and labels:
homologous PCA reaction = experiment: Homologous passive cutaneous anaphylaxis (PCA) reaction; format: in vivo, rat (SD (Sprague-Dawley) strain); details: rat; for Inhibition effect of PCA reaction: oral
Procedure: Anti-egg albumin rat serum in amount of 0.1 ml was intracutaneously injected to the shaved back of a mail rat of SD (Sprague-Dawley) strain weighing 200±30 g. The egg-albumin as antigen in amount of 5 mg/Kg were intravenously injected, together with 40 mg/Kg of dye (Evans blue) 24 hours after antiserum injection. The test materials were given at the respective times before antigen injection as 5% suspension in gum arabic in the case of oral administration (p. o.), while as a solution in physiological salt solution in the case of the intravenous injection (i. v.). The rat was sacrificed 30 minutes after the injection of the antigen, and the skin was removed. The amount of the dye leaked at the reaction locus was measured by extraction method according to Katayama et al.; Microbiol. Immunol. 22, 89-101 (1978), to determine the inhibiting rate on the homologous PCA reaction. There were elected, as the control, cromoglycate and ethyl 6,7-dihydro-6-methyl-8H-pyrano[3,2-g]chromone-2-carboxylate which are known in the art.
Regarding 6,7-dihydro-6,8,8,10-tetramethyl-8H-pyrano[3,2-g] chromone-2-carboxylic acid of this invention, there were determined, in the same manner, inhibition effect of PCA reaction when oral administration was carried out.

[1] = cited from earlier work
[2] = tested on: actively sensitized rat peritoneal mast cells; experiment: Histamine release from actively sensitized rat peritoneal mast cells mediated by antigen-antibody reaction; format: cell-based, rat (SD strain); details: Mast cell, egg-albumine 10 μg/ml, 37° C., read-out: Inhibition rate of histamine release
Procedure: (2) Histamine release from actively sensitized rat peritoneal mast cells mediated by antigen-antibody reaction
A male rate of SD strain weighing 200-400 g was used in this experiment. The sensitization of rats was performed by the method according to Kusner et al.; J. Pharmcol. & Exper. Ther, 184, 41-44 (1973). The mast cells were isolated 14 days after the sensitization by the method according to Johnson, et al.; Am. J. Physiol. 216, 453-459 (1969). The number of the mast cells was adjusted to 2×10^5 /ml. Each one milliliter of the cell suspension was divisionally poured into siliconized test tubes, and placed in an incubator adjusted to 37° C. The egg-albumine, as antigen, was added thereto at the final concentration of 10 μg/ml. At the same time of the addition of antigen, there is added sodium 6,7-dihydro-6,8,8,10-tetramethyl-8H-pyrano[3,2-g] chromone-2-carboxylate according to this invention in the respective concentrations.
The amount of histamine released from the mast cells was determined fluorimetrically according to Suzuki's method [Keio Igaku, 50, 263-270 (1973) Japan].

For `Cc1c2c(cc3c(=O)cc(C(=O)O)oc13)C(C)CC(C)(C)O2` (stereo not shown) [6,7-Dihydro-6,8,8,10-tetramethyl-8H-pyrano [3,2-g] chromone-2-carboxylic acid], the “Inhibition effect of PCA reaction, dose dependence” value (homologous PCA reaction; oral administration) was “dose-dependent inhibiting effect”, the “Time of administration before antigen with the most remarkable inhibition effect of PCA reaction” value (homologous PCA reaction; oral administration) was 15 to 30 min and the “Inhibition effect of PCA reaction” value (homologous PCA reaction; 1 mg/Kg, before 5 minutes) was 15.1%. For the same molecule, the “Inhibition effect of PCA reaction” value (homologous PCA reaction; 3 mg/Kg, before 5 minutes) was 54.8%, the “Inhibition effect of PCA reaction” value (homologous PCA reaction; 10 mg/Kg, before 2 minutes) was 44.1% and the “Inhibition effect of PCA reaction” value (homologous PCA reaction; 10 mg/Kg, before 5 minutes (dose series)) was 78.5%. For the same molecule, the “Inhibition effect of PCA reaction” value (homologous PCA reaction; 10 mg/Kg, before 5 minutes (time-course series)) was 62.2%, the “Inhibition effect of PCA reaction” value (homologous PCA reaction; 10 mg/Kg, before 15 minutes) was 82.0% and the “Inhibition effect of PCA reaction” value (homologous PCA reaction; 10 mg/Kg, before 30 minutes) was 84.3%. For the same molecule, the “Inhibition effect of PCA reaction” value (homologous PCA reaction; 10 mg/Kg, before 60 minutes) was 54.3% and the “Inhibition effect of PCA reaction” value (homologous PCA reaction; 30 mg/Kg, before 5 minutes) was 90.3%.
For `O=C(O)c1cc(=O)c2c(OCC(O)COc3cccc4oc(C(=O)O)cc(=O)c34)cccc2o1` [Chromoglycate, reference compound], the “Effect on oral administration” value [1] is given as “not effective when it is orally administered”, the “Inhibition rate of PCA reaction” value (homologous PCA reaction; 6 mg/Kg i.v., at the same time) is given as 88.6% and the “Inhibition rate of PCA reaction” value (homologous PCA reaction; 20 mg/Kg p.o., before one hour) is given as 0%.
With `CCOC(=O)c1cc(=O)c2c(C)c3c(c(C)c2o1)OC(C)(C)C(C)C3` (stereo not shown) [Ethyl 6,7-dihydro-5,7,8,8,10-pentamethyl-8H-pyrano[3,2-g]chromone-2-carboxylate] the “Inhibition rate of PCA reaction” value (homologous PCA reaction; 20 mg/Kg p.o., before one hour) was 47.9%.
With `CCOC(=O)c1cc(=O)c2cc3c(c(C)c2o1)OC(C)(C)CC3C` (stereo not shown) [Ethyl 6,7-dihydro-6,8,8,10-tetramethyl-8H-pyrano [3,2-g] chromone-2-carboxylate] the “Inhibition rate of PCA reaction” value (homologous PCA reaction; 20 mg/Kg p.o., before one hour) was 63.8%.
With `CCOC(=O)c1cc(=O)c2c(C)c3c(c(CC)c2o1)OC(C)(C)CC3C` (stereo not shown) [Ethyl 6,7-dihydro-10-ethyl-5,6,8,8-tetramethyl-8H-pyrano[3,2-g]chromone-2-carboxylate] the “Inhibition rate of PCA reaction” value (homologous PCA reaction; 20 mg/Kg p.o., before one hour) was 64.4%.
In the case of `CCOC(=O)c1cc(=O)c2cc3c(c(OC)c2o1)OC(C)(C)CC3C` (stereo not shown) [Ethyl 6,7-dihydro-10-methoxy-6,8,8-trimethyl-8H-pyrano [3,2-g] chromone-2-carboxylate], the “Inhibition rate of PCA reaction” value (homologous PCA reaction; 20 mg/Kg p.o., before one hour) is reported as 62.2%.
With `Cc1c2c(cc3c(=O)cc(C(=O)O)oc13)C(C)CC(C)(C)O2` (stereo not shown) [Sodium 6,7-dihydro-6,8,8,10-tetramethyl-8H-pyrano [3,2-g] chromone-2-carboxylate] the “Inhibition rate of PCA reaction” value (homologous PCA reaction; 0.4 mg/Kg i.v., at the same time) was 65.2%, the “Inhibition rate of PCA reaction” value (homologous PCA reaction; 20 mg/Kg p.o., before one hour) was 64.9% and the inhibition at 0.2 µM ([2]; 0.2 μM) was 48.2%. It also gave an inhibition at 1 µM ([2]; 1.0 μM) of 66.1%, an inhibition at 2 µM ([2]; 2.0 μM) of 73.2% and an inhibition at 10 µM ([2]; 10.0 μM) of 60.7%.
With `CCOC(=O)c1cc(=O)c2cc3c(cc2o1)OCCC3C` (stereo not shown) [ethyl 6,7-dihydro-6-methyl-8H-pyrano[3,2-g]chromone-2-carboxylate, reference compound] the “Inhibition rate of PCA reaction” value (homologous PCA reaction; 20 mg/Kg p.o., before one hour) was 23.7%.
